Usually EC50 stands for the concentration at which the effect is half-maximal.

Test [1] concerns the target T1, Peroxisome proliferator-activated receptor delta (Homo sapiens, UniProt Q03181).
T1 sequence (Q03181 whole entry): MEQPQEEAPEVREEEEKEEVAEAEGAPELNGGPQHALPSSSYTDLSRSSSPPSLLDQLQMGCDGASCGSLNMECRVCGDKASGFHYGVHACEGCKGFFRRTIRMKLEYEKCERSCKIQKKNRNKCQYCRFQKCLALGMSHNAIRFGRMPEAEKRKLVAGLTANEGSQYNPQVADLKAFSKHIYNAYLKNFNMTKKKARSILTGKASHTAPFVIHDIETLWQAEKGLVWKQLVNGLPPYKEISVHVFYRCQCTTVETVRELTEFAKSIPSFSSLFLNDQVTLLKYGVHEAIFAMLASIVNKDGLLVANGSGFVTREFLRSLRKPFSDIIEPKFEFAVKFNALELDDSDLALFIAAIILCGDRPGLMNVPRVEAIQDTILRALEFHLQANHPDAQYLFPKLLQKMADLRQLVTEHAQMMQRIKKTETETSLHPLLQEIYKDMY
In words: Agonist activity at human PPARdelta. It is filed as functional.

For test [2], the target named is T2, Peroxisome proliferator-activated receptor alpha (Homo sapiens, UniProt Q07869).
T2 sequence (Q07869 whole entry): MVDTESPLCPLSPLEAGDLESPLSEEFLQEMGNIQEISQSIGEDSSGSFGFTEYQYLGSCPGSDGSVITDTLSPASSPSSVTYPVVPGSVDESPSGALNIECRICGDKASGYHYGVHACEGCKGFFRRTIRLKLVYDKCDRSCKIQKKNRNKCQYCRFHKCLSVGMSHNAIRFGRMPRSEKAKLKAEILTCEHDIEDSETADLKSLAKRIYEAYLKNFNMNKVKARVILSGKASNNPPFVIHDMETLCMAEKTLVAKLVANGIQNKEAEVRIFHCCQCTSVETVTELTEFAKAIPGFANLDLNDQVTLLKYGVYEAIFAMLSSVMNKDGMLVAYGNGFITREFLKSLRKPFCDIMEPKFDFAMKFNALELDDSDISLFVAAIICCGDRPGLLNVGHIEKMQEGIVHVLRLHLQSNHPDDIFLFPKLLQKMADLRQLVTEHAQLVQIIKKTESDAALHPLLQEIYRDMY
As to the kind of experiment: Activity at PPARalpha.

Test [3] concerns the target T3, Peroxisome proliferator-activated receptor gamma (Homo sapiens, UniProt P37231).
T3 sequence (P37231 whole entry): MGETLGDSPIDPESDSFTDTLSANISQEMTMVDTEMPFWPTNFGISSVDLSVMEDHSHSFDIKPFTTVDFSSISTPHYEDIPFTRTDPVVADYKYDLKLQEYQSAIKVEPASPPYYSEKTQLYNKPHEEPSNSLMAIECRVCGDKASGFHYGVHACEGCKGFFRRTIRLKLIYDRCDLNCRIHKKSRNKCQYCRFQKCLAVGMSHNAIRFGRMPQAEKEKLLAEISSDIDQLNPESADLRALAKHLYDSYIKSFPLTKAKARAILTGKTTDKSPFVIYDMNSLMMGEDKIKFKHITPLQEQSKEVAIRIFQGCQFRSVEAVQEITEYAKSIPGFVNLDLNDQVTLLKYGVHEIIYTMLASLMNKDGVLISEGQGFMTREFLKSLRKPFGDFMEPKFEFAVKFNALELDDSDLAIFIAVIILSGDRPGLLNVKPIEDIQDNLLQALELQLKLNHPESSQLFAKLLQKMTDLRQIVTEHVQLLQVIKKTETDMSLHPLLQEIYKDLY
In words: Activity at PPARgamma.

A value given as a limit tells only on which side of the number the result lay.

Take `C=C(CNc1ccc(C(F)(F)F)cc1)CSc1ccc(OCC(=O)O)c(C)c1`: the EC50 in test [1] is more than 500 nM; in test [2] it was more than 1000 nM; in test [3], more than 1000 nM.

Regarding `C=C(COc1ccc(C(F)(F)F)cc1)CSc1ccc(OCC(=O)O)c(Cl)c1`, the EC50 in test [1] is 46.7 nM; in test [2] it was more than 1000 nM; in test [3], more than 1000 nM.

As for `C=C(COc1ccccc1)CSc1ccc(OCC(=O)O)c(C)c1`, the EC50 in test [2] and in test [3] was more than 1000 nM each time.

On to `C=C(COc1ccc(C(F)(F)F)cc1)CSc1ccc(OCC(=O)O)c(C(F)(F)F)c1`, for which the EC50 in test [1], in test [2] and in test [3] was more than 1000 nM throughout.

Consider `C=C(COc1ccc(C(F)(F)F)cc1)CSc1ccc(OCC(=O)O)cc1Cl`, for which the EC50 is more than 500 nM in test [1], more than 1000 nM in test [2] and more than 1000 nM in test [3].

In the case of `C=C(COc1ccc(Cl)c(C(F)(F)F)c1)CSc1ccc(OCC(=O)O)c(C)c1`, the EC50 is more than 500 nM in test [1], more than 1000 nM in test [2] and more than 1000 nM in test [3].

Turning to `C=C(COc1ccc(C(F)(F)F)cc1)COc1ccc(OCC(=O)O)c(C)c1`, the EC50 in test [2] and in test [3] was more than 1000 nM throughout.

In the case of `Cc1cc(SCC(COc2ccc(C(F)(F)F)cc2)=C(F)F)ccc1OCC(=O)O`, the response in test [1] was half-maximal at 69.6 nM (EC50).

Take `C=C(COc1ccc(Cl)cc1)CSc1ccc(OCC(=O)O)c(C)c1`: the values for the EC50 in test [1], in test [2] and in test [3] were 65.5 nM, more than 1000 nM and more than 1000 nM, respectively.

For the compound `C=C(COc1ccc(C(F)(F)F)cc1)CSc1ccc(OCC(=O)O)c(C)c1`, the half-maximal effective concentration (EC50) in test [2] and in test [3] was more than 1000 nM throughout.

`Cc1cc(SC/C(=C/C#N)COc2ccc(C(F)(F)F)cc2)ccc1OCC(=O)O` showed an EC50 in test [1] of 35.4 nM.

As for `C=C(CSc1ccc(C(F)(F)F)cc1)CSc1ccc(OCC(=O)O)c(C)c1`, the EC50 in test [2] and in test [3] was more than 1000 nM in each case.

Turning to `CCCC(CCC)(COc1ccc(C(F)(F)F)cc1)CSc1ccc(OCC(=O)O)c(C)c1`, in test [1], the EC50 was 8.6 nM.

Consider `C=C(CCc1ccc(C(F)(F)F)cc1)CSc1ccc(OCC(=O)O)c(C)c1`, for which the EC50 in test [2] and in test [3] was more than 1000 nM in each case.

As to `C=C(COc1ccc(C(F)(F)F)cc1)CSc1ccc(OCC(=O)O)c(OC)c1`, the EC50 in test [1], in test [2] and in test [3] was more than 1000 nM in each case.

For the compound `C=C(COc1ccc(OC)cc1)CSc1ccc(OCC(=O)O)c(C)c1`, the EC50 in test [2] and in test [3] was more than 1000 nM each time.

For the compound `C=C(COc1ccc(Cl)cc1Cl)CSc1ccc(OCC(=O)O)c(C)c1`, the EC50 in test [2] and in test [3] was more than 1000 nM throughout.

On to `C=C(COc1ccc(N(C)C)cc1)CSc1ccc(OCC(=O)O)c(C)c1`, for which the EC50 in test [2] and in test [3] was more than 1000 nM each time.

Regarding `C=C(COc1ccc(OC(F)(F)F)cc1)CSc1ccc(OCC(=O)O)c(C)c1`, the EC50 in test [1] was 28.4 nM; in test [2], more than 1000 nM; in test [3], more than 1000 nM.

`C=C(COc1ccc(Cl)c(Cl)c1)CSc1ccc(OCC(=O)O)c(C)c1`: the EC50 in test [1] was 49.8 nM; in test [2], more than 1000 nM; in test [3] it was more than 1000 nM.

The record behind these values is ChEMBL document CHEMBL1152720, “Discovery and SAR of para-alkylthiophenoxyacetic acids as potent and selective PPARdelta agonists” (Bioorg Med Chem Lett, 2009).
